Key:
[1] = tested on: KRas G12D mutant; experiment: Ras GTP Binding Domain Inhibition Assay, KRas G12D mutant; conditions: at 20 μM; for KRas G12D mutant + SOS: % inh.: with SOS; for KRas G12D mutant: % inh.: without SOS
Summary of the method: (§1)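 Compounds were tested at 20 μM final, or as dilution series for IC50, against nickel-plate-captured His-tagged GTPase proteins for 3 h at room temperature. Sos exchange factor could be present for the last hour. Labelled GTP (100 nM Cy3 or Cy5) was then bound for 45 min, wells were washed, and retained fluorescence was measured.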

[2] = tested on: KRas G12C mutant; experiment: Ras GTP Binding Domain Inhibition Assay, KRas G12C mutant; conditions: at 20 μM
Summary of the method: as §1

[3] = tested on: KRas wild type; experiment: Ras GTP Binding Domain Inhibition Assay, KRas wild type; conditions: at 20 μM
Summary of the method: as §1

[4] = tested on: Rho-A; experiment: Ras GTP Binding Domain Inhibition Assay, Rho-A; conditions: at 20 μM
Summary of the method: as §1

[5] = tested on: JNK; experiment: JNK Activation Assay in PANC-1; format: cell-based, human; parameters: key: Y = yes; N = No; conditions: at 10 μM
Method: Cell lines: Human tumor-derived pancreatic cancer cell line Panc-1 and mouse muscle myoblast C2C12 were purchased from American Type Culture Collection and grown in complete DMEM-High Glucose, supplemented with penicillin (100 U/mL), streptomycin (100 μg/mL), and 10% heat-inactivated FBS at 37° C. in a humidified incubator with 5% CO2.
Method: Cells were plated at 350000 cells/well density in a 12-well plate, allowed 3 hours to adhere to the plate, then starved in the appropriate medium in the presence of 0.5% FBS overnight. The small molecules to be tested were added to the cells in the final concentration of 10 μM in the presence of 0.3% DMSO for 3 hours incubation at 37° C. For IC50 value determination, serial dilutions of compounds were added to cells under the same conditions. […] Protein concentration was assessed by BCA protein assay (Thermo Scientific). Phosphorylation level of JNK was determined by western blot.
Western blot protocol: Equal amounts of protein (15-50 μg) were separated by SDS-PAGE and transferred to nitrocellulose membranes (Invitrogen by Thermo Fisher Scientific). […] Membranes were blocked with 10% milk and phosphorylation levels of Smad2, Smad3, JNK and p38 were assessed by incubating overnight at 4° C. with the following antibody: Phospho-SAPK/JNK (Thr183/Tyr185), from Cell Signaling Technology. […]

With `CO[C@H]1CC[C@@H](Nc2nc(-c3nccn3C)nc3sc(-c4ccn(C)n4)c(-c4ccccc4)c23)C1` (racemic) [Compound 5, rac-N-((1R,3S)-3-Methoxycyclopentyl)-2-(1-methyl-1H-imidazol-2-yl)-6-(1-methyl-1H-pyrazol-3-yl)-5-phenylthieno[2,3-d]pyrimidin-4-amine] the “KRas G12D mutant + SOS: % inh.” value ([1]; Table 7) was “C (C = 46-75% inhibition)”, the “KRas G12D mutant + SOS: % inh.” value ([1]; Table 8) was “C (C = 46-75% inhibition)” and the “KRas G12D mutant: % inh.” value ([1]; Table 7) was “A (A = 1-25% inhibition)”. For the same compound, the “KRas G12D mutant: % inh.” value ([1]; Table 8) was “A (A = 1-25% inhibition)”, the “KRas G12C mutant + SOS: % inh.” value ([2]; with SOS) was “D (D = 76-100% inhibition)” and the “KRas G12C mutant: % inh.” value ([2]; without SOS) was “B (B = 26-45% inhibition)”. For the same compound, the “KRas wild type + SOS: % inh.” value ([3]; with SOS) was “D (D = 76-100% inhibition)”, the “KRas wild type: % inh.” value ([3]; without SOS) was “B (B = 26-45% inhibition)” and the “Rho-A + SOS: % inh.” value ([4]; with SOS) was “D (D = 76-100% inhibition)”. The “Rho-A: % inh.” value ([4]; without SOS) was “C (C = 46-75% inhibition)” and the “Activation of JNK in PANC-1” value [5] was “Y”.

Reference: patent publication US20240309015A1, “Methods for the Treatment of Fibrotic Disease” (SHY Therapeutics, LLC, priority 2021, published 2024)
